This is an account of results in patent EP1348714B1, “Polypeptide useful as anti-allergic/antiasthmatic, methods for the preparation thereof and pharmaceutical compositions containing such polypeptide and their use” (COUNCIL OF SCIENTIFIC AND INDUSTRIAL RESEARCH, priority 2002, dated 2003).

A short description of data set [1]: other pharmacological studies (cardiovascular, CNS, anti-inflammatory, diuretic). The class given is in vivo. The settings on record: up to a dose of 10 mg/kg.
For data set [2], the system named is Sensitised mast cells (Immunological: Egg albumin). The experiment in a line: mast cell degranulation by egg albumin in sensitised mast cells. The class given is in vivo, rats. The settings on record: dose 50.0 pro (10.0 x 5 d) mg/kg x days.
The subject of data set [3] is Normal mast cells (Noninnunological: Comp. 48/80). The experiment in a line: mast cell degranulation by comp 48/80 in normal mast cells. The class given is in vivo, rats. The note with it: dose 50.0 pro (10.0 x 5 d) mg/kg x days.
Data set [4] has as its system sensitised guinea pig ileum. The experiment in a line: antigen (egg albumin) induced contraction of sensitised guinea pig ileum (Schultz-Dale phenomenon).
Data set [5] deals with passive cutaneous anaphylaxis (PCA). The experiment in a line: passive cutaneous anaphylaxis (PCA) test in rats. The class given is in vivo.
The next data set has as its system Egg-albumin. As to the kind of experiment: aerosol test, egg-albumin challenge in sensitised guinea pigs. The settings on record: dose 50 mg/kg (ip). The class given is in vivo.

Square brackets hold non-standard residues; d marks the D form. Peptide text beside a SMILES is read from it. Sar = CNCC(=O)O

As for `C[C@H](N)C(=O)NCC(=O)NCC(=O)N[C@@H](CC(=O)O)C(=O)N(C)CC(=O)N[C@@H](CCCCN)C(=O)O` [96/199, L-alanyl-glycyl-glycyl-L-aspartyl-sar-L-1ys] (H-AGGD[Sar]K-OH), the “cardiovascular, Central Nervous System (CNS), anti-inflammatory, diuretic activities” value in data set [1] is “No significant effects”.

Take `O=C([O-])c1cc(=O)c2c(OCC(O)COc3cccc4oc(C(=O)[O-])cc(=O)c34)cccc2o1.[Na+].[Na+]` [DSCG, disodium cromoglycate]: the “% Protection” value in data set [2] was found to be 71%; in data set [3], 72%. For the same molecule, the entries for the “% Protection to ileum contraction induced by egg albumin” value in data set [4] (concentration 1.0 (unit not given)), in data set [4] (concentration 2.0 (unit not given)) and in data set [4] (concentration 3.0 (unit not given)) were “No block”, 18% and 59%, respectively. In addition, the “anti PCA activity” value in data set [5] (rat, 50 mg/kg by nasal route) came to 81%. For the same molecule, the “% Anti-PCA activity” value in data set [5] (rats, dose 50.0 mg/kg (IP)) is given as 77%. The “% Protection Egg-albumin” value in the data set on Egg-albumin came out at 64%.
